Assay in all cases: DSF 100 kinase selectivity screen;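 also: compound tested at 20 µM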
Common to all, as to format: binding

Test [1] addresses T1, ~100 representative kinases (Homo sapiens, UniProt P16083).
T1 construct: Recombinant protein kinase domains with a concentration of 2 μM
T1 sequence (P16083 1-231): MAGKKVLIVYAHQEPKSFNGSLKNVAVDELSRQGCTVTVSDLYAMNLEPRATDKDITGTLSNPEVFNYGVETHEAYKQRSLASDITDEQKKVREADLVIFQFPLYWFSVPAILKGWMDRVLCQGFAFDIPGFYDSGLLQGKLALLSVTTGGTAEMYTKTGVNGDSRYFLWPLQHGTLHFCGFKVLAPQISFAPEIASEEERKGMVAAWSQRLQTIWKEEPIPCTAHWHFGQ
The note with it: protein NQO2; average of three replicates. The method, boiled down: (§1)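 Each kinase domain, at 2 μM, is mixed with 20 μM test compound and SYPRO Orange in Hepes (20 mM, pH 7.5) with 500 mM NaCl. Temperature is then raised at 3°C/min and fluorescence-monitored unfolding yields the melting temperature change, ΔTm in degrees Celsius.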

Test [2] has as its target T2, ~100 representative kinases (Homo sapiens, UniProt P22830).
T2 construct: Recombinant protein kinase domains with a concentration of 2 μM
T2 sequence (P22830 55-423): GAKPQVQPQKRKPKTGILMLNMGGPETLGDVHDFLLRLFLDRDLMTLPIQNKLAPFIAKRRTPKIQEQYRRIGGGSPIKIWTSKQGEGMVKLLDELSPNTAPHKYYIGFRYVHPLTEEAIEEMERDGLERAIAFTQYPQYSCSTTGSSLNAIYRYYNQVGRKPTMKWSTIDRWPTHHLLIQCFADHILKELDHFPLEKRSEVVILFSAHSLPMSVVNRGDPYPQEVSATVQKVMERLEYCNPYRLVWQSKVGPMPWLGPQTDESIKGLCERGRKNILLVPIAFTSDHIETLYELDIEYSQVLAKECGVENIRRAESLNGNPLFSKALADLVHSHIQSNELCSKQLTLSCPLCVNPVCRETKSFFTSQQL
The note with it: protein FECH; average of three replicates. The method, boiled down: as §1

Test [3] concerns the target T3, ~100 representative kinases (Homo sapiens, UniProt P28482).
T3 construct: Recombinant protein kinase domains with a concentration of 2 μM
The note with it: protein MAPK1; average of three replicates. In short, it runs like this:
as §1

The target in test [4] is T4, ~100 representative kinases (Homo sapiens, UniProt P45983).
T4 construct: Recombinant protein kinase domains with a concentration of 2 μM
T4 sequence (P45983 whole entry, the tested form may be a part): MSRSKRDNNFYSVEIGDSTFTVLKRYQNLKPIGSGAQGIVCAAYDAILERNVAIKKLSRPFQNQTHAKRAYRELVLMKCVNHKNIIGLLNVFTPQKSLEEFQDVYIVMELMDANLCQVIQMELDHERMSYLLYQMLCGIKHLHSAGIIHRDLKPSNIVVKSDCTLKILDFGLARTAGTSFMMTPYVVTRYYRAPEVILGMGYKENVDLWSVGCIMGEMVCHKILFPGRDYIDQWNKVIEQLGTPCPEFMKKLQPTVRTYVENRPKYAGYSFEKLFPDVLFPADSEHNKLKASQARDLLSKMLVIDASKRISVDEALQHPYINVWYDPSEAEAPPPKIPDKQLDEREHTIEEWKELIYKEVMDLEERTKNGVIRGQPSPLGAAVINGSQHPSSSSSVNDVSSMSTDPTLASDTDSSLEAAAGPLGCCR
The note with it: protein MAPK8; average of three replicates. The method, boiled down:
as §1

Test [5] has as its target T5, ~100 representative kinases (Homo sapiens, UniProt P49841).
T5 construct: Recombinant protein kinase domains with a concentration of 2 μM
The note with it: protein GSK3B; average of three replicates. The method, boiled down: as §1

For test [6], the target named is T6, ~100 representative kinases (Homo sapiens, UniProt P54764).
T6 construct: Recombinant protein kinase domains with a concentration of 2 μM
To be noted: Protein EPHA4; average of three replicates. The method, boiled down:
as §1

Test [7] concerns the target T7, ~100 representative kinases (Homo sapiens, UniProt Q00536).
T7 construct: Recombinant protein kinase domains with a concentration of 2 μM
The method, boiled down: as §1

Test [8] has as its target T8, ~100 representative kinases (Homo sapiens, UniProt Q13557).
T8 construct: Recombinant protein kinase domains with a concentration of 2 μM
To be noted: Protein CAMK2D; average of three replicates. In short, it runs like this:
as §1

For test [9], the target named is T9, ~100 representative kinases (Homo sapiens, UniProt Q14680).
T9 construct: Recombinant protein kinase domains with a concentration of 2 μM
T9 sequence (Q14680 whole entry, the tested form may be a part): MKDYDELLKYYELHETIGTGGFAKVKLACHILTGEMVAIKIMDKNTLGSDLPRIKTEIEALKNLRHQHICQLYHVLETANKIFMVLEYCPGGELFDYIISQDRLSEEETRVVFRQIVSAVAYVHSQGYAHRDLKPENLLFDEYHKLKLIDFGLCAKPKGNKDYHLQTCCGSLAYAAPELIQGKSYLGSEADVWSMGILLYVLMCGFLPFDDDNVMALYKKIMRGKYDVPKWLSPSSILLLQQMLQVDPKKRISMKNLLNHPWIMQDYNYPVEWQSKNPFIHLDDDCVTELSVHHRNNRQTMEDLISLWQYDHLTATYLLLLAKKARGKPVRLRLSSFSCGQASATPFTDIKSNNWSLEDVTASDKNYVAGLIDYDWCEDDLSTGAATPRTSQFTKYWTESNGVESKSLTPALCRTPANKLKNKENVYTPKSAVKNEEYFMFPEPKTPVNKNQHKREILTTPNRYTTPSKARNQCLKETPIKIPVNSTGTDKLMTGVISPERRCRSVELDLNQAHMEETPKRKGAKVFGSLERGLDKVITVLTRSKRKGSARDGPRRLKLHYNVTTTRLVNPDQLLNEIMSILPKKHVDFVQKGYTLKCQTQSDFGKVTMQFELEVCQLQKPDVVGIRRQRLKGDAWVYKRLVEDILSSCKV
To be noted: protein MELK; average of three replicates. In short, it runs like this: as §1

Test [10] concerns the target T10, ~100 representative kinases (Homo sapiens, UniProt Q96L34).
T10 construct: Recombinant protein kinase domains with a concentration of 2 μM
T10 sequence (Q96L34 1-752): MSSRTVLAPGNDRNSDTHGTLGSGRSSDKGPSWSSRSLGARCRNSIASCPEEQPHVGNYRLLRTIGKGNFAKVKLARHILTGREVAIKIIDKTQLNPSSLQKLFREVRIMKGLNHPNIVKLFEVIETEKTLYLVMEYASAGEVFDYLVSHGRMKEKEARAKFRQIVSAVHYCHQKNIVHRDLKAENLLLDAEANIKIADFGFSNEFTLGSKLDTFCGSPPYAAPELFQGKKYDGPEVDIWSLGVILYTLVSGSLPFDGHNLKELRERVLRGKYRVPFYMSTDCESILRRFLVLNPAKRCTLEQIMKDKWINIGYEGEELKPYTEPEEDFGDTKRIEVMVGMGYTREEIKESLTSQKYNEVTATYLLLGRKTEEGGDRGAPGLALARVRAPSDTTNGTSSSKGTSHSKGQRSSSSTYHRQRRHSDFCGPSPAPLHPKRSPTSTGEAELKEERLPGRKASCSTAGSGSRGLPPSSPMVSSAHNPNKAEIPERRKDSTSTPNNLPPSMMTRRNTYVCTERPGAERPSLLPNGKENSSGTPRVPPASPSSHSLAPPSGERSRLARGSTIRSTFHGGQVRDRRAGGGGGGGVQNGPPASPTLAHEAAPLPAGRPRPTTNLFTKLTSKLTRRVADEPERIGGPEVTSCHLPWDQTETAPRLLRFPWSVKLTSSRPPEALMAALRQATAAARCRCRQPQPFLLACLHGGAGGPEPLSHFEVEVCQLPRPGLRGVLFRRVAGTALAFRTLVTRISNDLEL
The note with it: protein MARK4; average of three replicates. In short, it runs like this:
as §1

In test [11] the target is T11, ~100 representative kinases (Homo sapiens, UniProt Q9H4A3).
T11 construct: Recombinant protein kinase domains with a concentration of 2 μM
T11 sequence (Q9H4A3 whole entry, the tested form may be a part): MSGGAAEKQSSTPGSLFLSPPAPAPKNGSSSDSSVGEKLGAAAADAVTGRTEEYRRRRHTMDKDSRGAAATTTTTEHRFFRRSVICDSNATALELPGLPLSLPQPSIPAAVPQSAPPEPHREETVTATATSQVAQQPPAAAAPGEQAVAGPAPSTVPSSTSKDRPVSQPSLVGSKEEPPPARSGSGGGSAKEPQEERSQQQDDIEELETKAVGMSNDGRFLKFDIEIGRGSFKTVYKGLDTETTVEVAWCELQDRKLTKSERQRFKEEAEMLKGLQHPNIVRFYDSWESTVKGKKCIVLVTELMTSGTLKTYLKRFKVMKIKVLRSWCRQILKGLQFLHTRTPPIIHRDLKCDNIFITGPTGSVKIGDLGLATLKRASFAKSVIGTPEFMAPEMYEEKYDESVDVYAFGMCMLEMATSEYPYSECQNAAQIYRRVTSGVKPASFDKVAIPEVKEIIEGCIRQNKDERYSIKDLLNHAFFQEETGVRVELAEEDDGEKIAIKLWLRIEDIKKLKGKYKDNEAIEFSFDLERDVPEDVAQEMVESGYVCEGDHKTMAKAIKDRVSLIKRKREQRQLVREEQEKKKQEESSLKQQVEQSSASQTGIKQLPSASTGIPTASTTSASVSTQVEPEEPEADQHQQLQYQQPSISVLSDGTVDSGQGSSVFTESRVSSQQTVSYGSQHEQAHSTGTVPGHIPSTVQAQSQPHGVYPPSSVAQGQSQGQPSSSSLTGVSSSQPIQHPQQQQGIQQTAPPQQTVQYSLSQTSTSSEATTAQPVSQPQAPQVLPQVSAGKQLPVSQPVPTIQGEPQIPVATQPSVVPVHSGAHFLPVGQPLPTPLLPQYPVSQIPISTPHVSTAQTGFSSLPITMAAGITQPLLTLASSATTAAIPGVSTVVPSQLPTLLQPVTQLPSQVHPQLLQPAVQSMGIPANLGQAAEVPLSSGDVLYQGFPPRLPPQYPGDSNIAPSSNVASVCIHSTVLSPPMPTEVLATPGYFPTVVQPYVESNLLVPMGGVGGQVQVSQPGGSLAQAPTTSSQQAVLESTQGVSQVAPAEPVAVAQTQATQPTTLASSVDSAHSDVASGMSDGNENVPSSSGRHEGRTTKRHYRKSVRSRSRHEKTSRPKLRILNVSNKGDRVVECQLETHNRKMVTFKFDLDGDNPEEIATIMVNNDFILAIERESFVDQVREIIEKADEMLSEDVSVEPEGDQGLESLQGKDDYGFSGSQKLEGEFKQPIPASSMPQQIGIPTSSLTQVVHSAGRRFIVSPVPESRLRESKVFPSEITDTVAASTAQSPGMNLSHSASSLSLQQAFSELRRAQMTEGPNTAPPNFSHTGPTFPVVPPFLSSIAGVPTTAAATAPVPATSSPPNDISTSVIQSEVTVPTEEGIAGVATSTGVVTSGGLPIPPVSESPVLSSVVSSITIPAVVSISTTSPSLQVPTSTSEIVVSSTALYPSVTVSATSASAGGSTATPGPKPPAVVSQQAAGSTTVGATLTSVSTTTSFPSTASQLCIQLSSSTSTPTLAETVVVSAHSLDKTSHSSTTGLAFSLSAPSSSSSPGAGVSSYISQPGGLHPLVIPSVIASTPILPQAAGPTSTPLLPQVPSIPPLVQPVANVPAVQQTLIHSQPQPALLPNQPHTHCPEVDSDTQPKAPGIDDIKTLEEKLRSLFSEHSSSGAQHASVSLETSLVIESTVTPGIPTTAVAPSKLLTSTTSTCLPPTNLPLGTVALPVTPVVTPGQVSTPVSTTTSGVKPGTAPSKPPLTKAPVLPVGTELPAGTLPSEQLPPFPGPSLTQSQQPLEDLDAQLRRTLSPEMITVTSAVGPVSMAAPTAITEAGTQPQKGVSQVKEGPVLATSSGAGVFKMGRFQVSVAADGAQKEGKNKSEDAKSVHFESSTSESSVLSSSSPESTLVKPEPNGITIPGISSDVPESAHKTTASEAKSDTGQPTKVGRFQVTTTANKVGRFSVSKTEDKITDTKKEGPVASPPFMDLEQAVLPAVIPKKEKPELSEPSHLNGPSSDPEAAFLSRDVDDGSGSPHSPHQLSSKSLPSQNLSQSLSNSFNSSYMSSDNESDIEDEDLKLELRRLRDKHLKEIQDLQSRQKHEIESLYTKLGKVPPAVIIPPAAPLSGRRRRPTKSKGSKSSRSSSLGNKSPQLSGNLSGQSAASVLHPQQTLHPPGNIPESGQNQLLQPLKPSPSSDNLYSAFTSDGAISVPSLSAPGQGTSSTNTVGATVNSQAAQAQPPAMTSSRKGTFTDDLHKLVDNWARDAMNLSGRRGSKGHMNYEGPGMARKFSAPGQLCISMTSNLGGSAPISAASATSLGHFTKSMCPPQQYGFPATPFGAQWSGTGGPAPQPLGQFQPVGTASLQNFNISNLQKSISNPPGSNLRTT
To be noted: Protein WNK1; DSF; average of three replicates. In short, it runs like this: as §1

Data on one compound can be found in PMC12136037, “Type II kinase inhibitors that target Parkinson’s disease–associated LRRK2” (Science Advances, 2025).

The structures appear in SMILES notation.

T5 sequence (P49841 whole entry, the tested form may be a part): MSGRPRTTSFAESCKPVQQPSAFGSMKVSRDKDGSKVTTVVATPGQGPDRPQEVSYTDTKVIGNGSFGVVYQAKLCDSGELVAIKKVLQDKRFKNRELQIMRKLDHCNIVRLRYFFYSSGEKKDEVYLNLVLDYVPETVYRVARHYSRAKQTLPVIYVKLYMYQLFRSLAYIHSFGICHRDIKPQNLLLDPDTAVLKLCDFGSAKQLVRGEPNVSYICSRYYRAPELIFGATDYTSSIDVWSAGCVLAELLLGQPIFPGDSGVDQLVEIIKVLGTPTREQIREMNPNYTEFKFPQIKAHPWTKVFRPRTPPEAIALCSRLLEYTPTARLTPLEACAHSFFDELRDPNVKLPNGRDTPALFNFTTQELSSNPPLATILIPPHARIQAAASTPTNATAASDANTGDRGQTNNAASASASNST
T7 sequence (Q00536 whole entry, the tested form may be a part): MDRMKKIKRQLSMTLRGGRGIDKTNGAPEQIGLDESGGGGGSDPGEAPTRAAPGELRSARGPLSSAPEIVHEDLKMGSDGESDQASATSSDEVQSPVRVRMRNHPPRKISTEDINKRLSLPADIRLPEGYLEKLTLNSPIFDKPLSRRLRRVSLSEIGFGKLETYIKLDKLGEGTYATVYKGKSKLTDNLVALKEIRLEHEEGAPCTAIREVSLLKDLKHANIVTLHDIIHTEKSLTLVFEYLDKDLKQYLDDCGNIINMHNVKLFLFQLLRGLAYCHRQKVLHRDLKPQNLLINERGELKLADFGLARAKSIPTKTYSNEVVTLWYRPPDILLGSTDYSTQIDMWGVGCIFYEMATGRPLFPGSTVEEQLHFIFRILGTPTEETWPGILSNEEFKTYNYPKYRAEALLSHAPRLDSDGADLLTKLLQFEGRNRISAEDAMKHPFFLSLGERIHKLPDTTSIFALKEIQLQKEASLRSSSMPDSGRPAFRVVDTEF
T8 sequence (Q13557 whole entry, the tested form may be a part): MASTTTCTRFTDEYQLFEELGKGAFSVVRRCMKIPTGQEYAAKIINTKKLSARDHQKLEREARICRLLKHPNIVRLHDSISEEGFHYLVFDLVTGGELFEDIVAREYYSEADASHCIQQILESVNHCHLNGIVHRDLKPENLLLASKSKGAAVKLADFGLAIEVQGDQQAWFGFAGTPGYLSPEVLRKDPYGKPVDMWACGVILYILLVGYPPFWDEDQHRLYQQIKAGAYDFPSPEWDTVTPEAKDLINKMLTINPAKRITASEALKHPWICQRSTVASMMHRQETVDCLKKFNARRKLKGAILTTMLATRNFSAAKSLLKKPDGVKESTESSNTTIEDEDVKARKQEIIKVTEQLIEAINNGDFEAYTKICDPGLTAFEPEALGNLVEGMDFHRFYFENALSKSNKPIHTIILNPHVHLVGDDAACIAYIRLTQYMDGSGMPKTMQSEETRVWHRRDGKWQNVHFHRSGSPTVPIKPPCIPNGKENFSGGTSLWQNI

Turning to `COc1cc2c(Oc3ccc(NC(=O)C4(C(=O)Nc5ccc(F)cc5)CC4)cc3F)ccnc2cc1OCCCN1CCOCC1` [Foretinib, reference compound], the dTm was 0.08 K in test [1]; -11.10 K in [2]; 0.0844 K in test [3]; 2.68 K in test [4]; 3.46 K in test [5]; 11.16 K in test [6]. The dTm was found to be 4.52 K in [7]; 0.34 K in [8]; 7.59 K in [9]; 1.64 K in [10]; 1.01 K in [11].
